From US7378080B2, “Methods for identifying compounds for motion sickness, vertigo and other disorders related to balance and the perception of gravity” (Neurosciences Research Foundation, Inc., priority 1999, dated 2008) come the findings set out here.

The test system of this assay is Canton-S flies. As to the kind of experiment: Geotaxis maze assay of Drosophila. In kind it is in vivo, Drosophila melanogaster. As to the method:
These strains and a standard laboratory wild-type strain (Canton-S, obtained from the Bloomington Drosophila Stock Center, Indiana University at Bloomington) were then tested in a geotaxis maze constructed according to the design of Hirsch (J. Comp. Physiol. Psychol. 52:304-308 (1959)) as modified by McMillan and McGuire (Behav. Genet. 22:557-573 (1992)), shown in FIG. 1. The geotaxis maze was fashioned from plexiglass and the maze chambers were hollowed out as semi-circular depressions in the slab, such that when the two slabs were bolted together a circular tube was formed in maze. This design thus made it possible to observe the entire time course of the assay. Additionally, this maze is easy to clean and standardize. For each strain, a geotaxis score was determined. In separate measurements, twenty to thirty flies of each strain were loaded into a starting tube on the left (see FIG. 1). The maze was set upright in front of a light source on the right, and, after turning on the light, each strain was scored according to the distribution of the flies in the nine collecting tubes on the right. A perfect score for positive geotaxis would be 1, for negative geotaxis, 9, and for an even distribution, 5. The geotaxis measurments were repeated 3-5 times for each strain (see Table 1). […]

For `OCCOCCN1CCN(C(c2ccccc2)c2ccc(Cl)cc2)CC1` (centres unmarked) [hydroxyzine], the “Effect on geotactic behavior (in words)” value (Canton-S flies fed with the histamine receptor antagonist) was “Extreme negative geotaxis is induced”. Where the note is “wild-type Canton-S flies fed for 2 hr on 20 mg/ml hydroxyzine, score scale 1 = positive geotaxis, 5 = even distribution, 9 = negative geotaxis, N=1 (15-25 flies), untreated Canton-S 5.53”, the Geotaxis score stood at 8.50.
